Measurements as given in patent EP1913949A1, “Modulation of substrate preference by selective translocation of the major cardiac glucose transporter Glut4” (priority 2006, dated 2008).
Like-named read-outs stand apart in the source and are kept apart here.

Legend:
[1] = system: heart-derived giant vesicles; assay: glucose uptake by giant vesicles (intrinsic transporter activity); type: biochemical, rat; conditions: for glucose uptake into giant vesicles inhibited: inhibitor 10 µM
CD36 = type: cell-based, rat
FABPpm = type: cell-based, rat
Akt/PKB = type: cell-based, rat; conditions: for effect on Akt/PKB phosphorylation: 20 min
cardiac myocytes [2] = conditions: for effect on LCFA uptake: in the absence or in the presence of insulin or arsenite, SB202190 (10 µM), PD98059 (10 µM), rapamycin (100 nM)
p38 MAPK [3] = system: p38 MAPK
ACC [4] = system: ACC
cardiac myocytes [5] = assay: tissue or blood; conditions: Rattus norvegicus
cardiac myocytes [6] = system: cardiac myocytes
[7] = system: heart-derived giant vesicles; type: biochemical, rat
AMPK [8] = conditions: 20 min
p38 MAPK [9] = assay: cells; conditions: Rattus norvegicus, 20 min, read-out: increase in p38 MAPK phosphorylation
AMPK [10] = assay: cells; conditions: Rattus norvegicus, 20 min, read-out: increase in phosphorylation of AMPK
ACC [11] = assay: cells; conditions: Rattus norvegicus, 20 min, read-out: increase in phosphorylation of ACC
[12] = 10 µM SB202190 added 20 min prior to 100 µM arsenite
[13] = SB202190, PD98059 10 µM, rapamycin 20 nM, wortmannin 200 nM, stimulus 100 nM insulin
[14] = SB202190, SB203580, PD98059 10 µM, rapamycin 20 nM, stimulus 100 µM arsenite
[15] = SB202190, PD98059 10 µM, rapamycin 20 nM, wortmannin 200 nM, stimulus 50 µM phenylephrine
[16] = SB202190, PD98059 10 µM, rapamycin 20 nM, wortmannin 200 nM, stimulus 100 µM arsenite
[17] = SB202190, PD98059 10 µM, rapamycin 20 nM, wortmannin 200 nM, stimulus 5 µM oligomycin
[18] = read-out: basal glucose uptake inhibited
[19] = read-out: glucose uptake inhibited in cardiac myocytes
[20] = read-out: glucose uptake inhibited in the presence of arsenite
[21] = read-out: glucose uptake inhibited in the presence of insulin
[22] = PD98059 (10 µM), rapamycin (100 nM), wortmannin (200 nM), no stimulus

Oc1ccc(-c2nc(-c3ccncc3)c(-c3ccc(F)cc3)[nH]2)cc1 [SB202190]
glucose uptake into giant vesicles inhibited ([1]; added 20 min prior): -27% | effect on subcellular distribution of CD36 (CD36; [12]): did not influence | effect on subcellular distribution of FABPpm (FABPpm; [12]): did not influence | inhibition of insulin-induced Akt/PKB phosphorylation (Akt/PKB; [13]): did not affect | effect on LCFA uptake (cardiac myocytes [2]): neither SB202190, nor PD98059 or rapamycin were able to influence | effect on arsenite-induced GLUT4 translocation (GLUT4; [12]): did not affect | inhibition of arsenite-stimulated p38 MAPK phosphorylation (p38 MAPK [3]; [14]): largely inhibited | inhibition of phenylephrine-induced p42/44 ERK phosphorylation (p42/44 ERK; [15]): did not affect | inhibition of arsenite-induced p70 S6K phosphorylation (p70 S6K; [16]): did not affect | inhibition of oligomycin-induced ACC phosphorylation (ACC [4]; [17]): did not affect | inhibition at 10 µM (cardiac myocytes [5]; [18]): -45% | inhibition at 10 µM (cardiac myocytes [5]; [19]): -33% | inhibition at 10 µM (cardiac myocytes [5]; [20]): -42% | inhibition at 10 µM (cardiac myocytes [5]; [21]): -33%

COc1cccc(-c2cc(=O)c3ccccc3o2)c1N [PD98059]
effect on glucose uptake into giant vesicles ([1]; same concentrations as in cardiac myocyte studies, added 20 min prior): did not alter | inhibition of insulin-induced Akt/PKB phosphorylation (Akt/PKB; [13]): did not inhibit | effect on arsenite-stimulated glucose uptake (cardiac myocytes [6]; PD98059 (10 µM), rapamycin (100 nM), wortmannin (200 nM), 100 µM arsenite): neither PD98059 nor rapamycin affected glucose uptake | effect on insulin-stimulated glucose uptake (cardiac myocytes [6]; PD98059 (10 µM), rapamycin (100 nM), wortmannin (200 nM), insulin): neither PD98059 nor rapamycin affected glucose uptake | effect on basal glucose uptake (cardiac myocytes [6]; [22]): no effect | effect on LCFA uptake (cardiac myocytes [2]): neither SB202190, nor PD98059 or rapamycin were able to influence | inhibition of arsenite-stimulated p38 MAPK phosphorylation (p38 MAPK [3]; [14]): did not inhibit | inhibition of phenylephrine-induced p42/44 ERK phosphorylation (p42/44 ERK; [15]): completely inhibited | inhibition of arsenite-induced p70 S6K phosphorylation (p70 S6K; [16]): did not inhibit | inhibition of oligomycin-induced ACC phosphorylation (ACC [4]; [17]): did not inhibit

C[S+]([O-])c1ccc(-c2nc(-c3ccncc3)c(-c3ccc(F)cc3)[nH]2)cc1 (stereo not drawn) [SB203580]
glucose uptake into giant vesicles inhibited ([1]; added 20 min prior): -46% | inhibition of arsenite-stimulated p38 MAPK phosphorylation (p38 MAPK [3]): similarly potent in blocking | inhibition at 10 µM (cardiac myocytes [5]; [18]): -56% | inhibition at 10 µM (cardiac myocytes [5]; [19]): -56% | inhibition at 10 µM (cardiac myocytes [5]; [20]): -57% | inhibition at 10 µM (cardiac myocytes [5]; [21]): -46%

sodium arsenite
effect on glucose uptake into giant vesicles [1]: did not influence | effect on LCFA uptake into giant vesicles [7]: did not influence | contents of CD36 in the LDM- and PM fractions (CD36; 20 min): did not significantly influence | distribution of FABPpm between the LDM and the PM fraction (FABPpm; 20 min): did not significantly influence | effect on Akt/PKB phosphorylation (Akt/PKB): did not stimulate | deoxyglucose uptake (cardiac myocytes [6]): without a further increase | effect of arsenite on glucose uptake in combination with oligomycin (cardiac myocytes [6]): retained its stimulatory action | effect of arsenite on glucose uptake in insulin-stimulated cardiac myocytes (cardiac myocytes [6]): ineffective | deoxyglucose uptake stimulated (cardiac myocytes [6]; cardiac myocytes, 20 min, 100 µM): 5.1 fold | LCFA uptake (cardiac myocytes [2]): did not increase | effect of arsenite on LCFA uptake in combination with insulin or oligomycin (cardiac myocytes [2]): did not significantly alter | content of GLUT4 in the LDM fraction decreased (GLUT4; 20 min): 44% | content of GLUT4 in the PM fraction increased (GLUT4; 20 min, 100 µM): 1.7 fold | increase in p38 MAPK phosphorylation (p38 MAPK [3]; 20 min): 7.8 ± 1.8 fold | increase in p42/44 ERK phosphorylation (p42/44 ERK; 20 min, 100 µM): 2.3 ± 0.5 fold | increase in p70 S6K phosphorylation (p70 S6K; 20 min, 100 µM): 3.3 ± 0.7 fold | effect on phosphorylation of AMPK (AMPK [8]): remained unaltered | effect on phosphorylation of ACC (ACC [4]; 20 min): remained unaltered

COC[C@H]1OC(=O)c2coc3c2[C@@]1(C)C1=C(C3=O)[C@@H]2CCC(=O)[C@@]2(C)C[C@H]1OC(C)=O [wortmannin]
effect on glucose uptake into giant vesicles [1]: did not alter | inhibition of insulin-induced Akt/PKB phosphorylation (Akt/PKB): completely blocked | effect on arsenite-stimulated glucose uptake (cardiac myocytes [6]): completely failed to inhibit | effect on basal glucose uptake (cardiac myocytes [6]): did not inhibit | effect on insulin-stimulated glucose uptake (cardiac myocytes [6]): largely blocked | effect on basal LCFA uptake (cardiac myocytes [2]): no effect | effect on insulin-induced LCFA uptake (cardiac myocytes [2]): completely blocked | inhibition of phenylephrine-induced p42/44 ERK phosphorylation (p42/44 ERK): unaltered | inhibition of arsenite-induced p70 S6K phosphorylation (p70 S6K): completely blocked | inhibition of oligomycin-induced ACC phosphorylation (ACC [4]): unaltered

CC[C@H]1/C=C/C=C/C[C@@H](C)[C@H](O)[C@@](C)(O)C(=O)[C@@H](C)[C@H](O)[C@@H](C)C(=O)[C@@H](C)[C@H](O)[C@@H](C)/C=C/C(=O)O[C@@H]2[C@H](C)[C@H](CC1)O[C@]1(CC[C@H](C)[C@H](C[C@@H](C)O)O1)[C@H]2C [oligomycin]
effect on Akt/PKB phosphorylation (Akt/PKB; 5 µM oligomycin or 100 µM arsenite): did not increase | effect on p42/44 ERK phosphorylation (p42/44 ERK; 20 min, 5 µM oligomycin): did not increase | effect on p70 S6K phosphorylation (p70 S6K; oligomycin): did not enhance | fold induction at 5 µM (p38 MAPK [9]): 5.7 ± 1.5 | fold induction at 5 µM (AMPK [10]): > 10 | fold induction at 5 µM (ACC [11]): > 10 | fold induction at 5 µM (cardiac myocytes [5]; read-out: glucose uptake increased): 2.9

CO[C@H]1C[C@@H]2CC[C@@H](C)[C@@](O)(O2)C(=O)C(=O)N2CCCC[C@H]2C(=O)O[C@H]([C@H](C)C[C@@H]2CC[C@@H](O)[C@H](OC)C2)CC(=O)[C@H](C)/C=C(\C)[C@@H](O)[C@@H](OC)C(=O)[C@H](C)C[C@H](C)/C=C/C=C/C=C/1C [rapamycin]
effect on basal glucose uptake (cardiac myocytes [6]; [22]): no effect
